{"source": "patent US7767240B2", "about": "“Microbiological control in poultry processing” (priority 2001, dated 2010)", "key": {"[1]": {"system": "biofilm-associated HPC (heterotrophic plate count) bacteria", "assay": "HPC bacteria eradication in biofilm, PVC sampling pipes", "assay_type": "cell-based", "description": "In another group of tests, the results of which are depicted in FIGS. 5 through 10, several bromine-based microbiocides of this invention were utilized in tests illustrating their effectiveness in eradicating or controlling Heterotrophic Plate Count bacteria i.e., a mixture of naturally-occurring pathogenic bacteria of various unidentified species. These bacteria were challenged both in the form of biofilms and in planktonic form.\nThe experimental conditions utilized in these tests involved use of an apparatus consisting of three parallel transparent PVC sampling pipes. These pipes were used for collection of biofilm (i.e., sessile or surface attached) bacteria samples; one as control pipe, one for a relatively low biocide concentration and the third for a higher biocide concentration. The biocide challenge in each case was divided into three phases. First was a 14-day inoculation. Next was a 48-hour disinfection period. Finally a 2-week recovery period was provided. The biocide under test was slug-dosed and during the first hour of exposure, the concentration was adjusted to achieve the desired concentration level.\nThe source of the naturally-grown heterotrophic plate count (HPC) bacteria was sediment and associated water collected from the recirculating hot water system of a hospital. […]"}, "[2]": {"system": "total bacteria (S. sonnei, L. monocytogenes, E. coli, S. enteritidis, P. aeruginosa, C. jejuni)", "assay": "Total bacteria reduction from control over 20-day storage (Example 4)", "assay_type": "cell-based", "settings": "pH 8", "method": "A study was conducted to determine the effect of Clorox® bleach, and 1,3-dibromo-5,5-dimethylhydantoin (DBDMH) on carcass bacteria residual after 1.5 hour in a chill tank solution and spoilage 20-day shelf life longevity (caused by bacteria contamination). Tests were conducted at pH 8 (adjusted by trisodium phosphate). Skin pigmentation (Minolta Color Meter L value or Lightness, a value or redness and b value or yellowness) were determined before and post-processing.\nIn general the study involved normal processing of 56-day-old birds, immersing carcasses first in a warm bath containing 10^4 per mL Escherichia coli, 10^4 per mL Salmonella enteritidis, 10^4 per mL Pseudomonas aeruginosa, 10^4 per mL Campylobacter jejuni, and 10^4 per mL spoilage bacteria each from […] strains (Listeria monocytogenes and Shigella sonnei). Carcass were then immersed in a chill tank “soup”, containing normal organic fluids (blood, fat, skin, and meat particles) and containing various disinfectants (termed test materials).\nA DBDMH stock solution and test solutions, a bacteria stock solution, and a “chicken soup” were prepared as in Example 3. In addition, the bacterial broth treatments, the whole bird wash sampling procedure, and the methodologies used for quantitative or qualitative determinations for bacterial organisms were conducted as in Example 3.\nIn greater detail the trial events and experimental design used in this group of tests were as follows: • a) Test microorganisms used were: • Escherichia coli ATCC 11229 • Pseudomonas aeruginosa ATCC 15442 • Salmonella enteritidis ATCC 13076 • Shigella sonnei ATCC 9290 • Listeria monocytogenes ATCC 7644 • Campylobacter jejuni ATCC 29428 • b) Test Procedure: All test strains were grown individually at 35° C. for 24 hours in the media specified in Table 12. Cells were harvested by centrifugation at 10,000×g for 10 minutes and washed twice with Butterfield's Phosphate Buffer (BPB of pH 7.2). Cells were resuspended in BPB to obtain a cell suspension of approximately 1.0×10^8 CFU/mL for each microorganism. The target inoculum levels were approximately 10^6 CFU/mL in the final test solutions. In the cases of S. enteritidis and P. aeruginosa the species were washed by pouring into prepared sterile centrifuge tubes with cheesecloth filters. The culture was then pelleted and washed using above techniques and repeated 3 times. • c) The birds (56 days old) were processed under normal commercial conditions. • d) The bacteria were added to a large batch of the “chicken soup”, and then aliquots of the resultant mixture were distributed equally among the chill waters used for each test. Then the particular disinfectant composition under test was added to one of the chill waters. […]"}}}
{"smiles": "CC1(C)C(=O)N(Br)C(=O)N1Br", "note": "[DBDMH, 1,3-dibromo-5,5-dimethylhydantoin]", "values": [{"measurement": "biofilm-associated HPC bacteria eradicated", "setting": "[1]; 0.5 ppm as bromine, within three hours", "value": "over 99%"}, {"measurement": "biofilm-associated HPC bacteria eradicated", "setting": "[1]; 5 ppm as bromine, within twelve hours", "value": "~99.9", "unit": "%"}, {"measurement": "Percentage of Total Bacteria Reduction From Control (Mean % Reduction From Control)", "setting": "[2]; Day 0 post-processing, 10 ppm", "value": 77.8, "unit": "%"}, {"measurement": "Percentage of Total Bacteria Reduction From Control (Mean % Reduction From Control)", "setting": "[2]; Day 0 post-processing, 20 ppm", "value": 99.5, "unit": "%"}, {"measurement": "Percentage of Total Bacteria Reduction From Control (Mean % Reduction From Control)", "setting": "[2]; Day 2 post-processing, 10 ppm", "value": 77.3, "unit": "%"}, {"measurement": "Percentage of Total Bacteria Reduction From Control (Mean % Reduction From Control)", "setting": "[2]; Day 2 post-processing, 20 ppm", "value": 99.4, "unit": "%"}, {"measurement": "Percentage of Total Bacteria Reduction From Control (Mean % Reduction From Control)", "setting": "[2]; Day 4 post-processing, 10 ppm", "value": 76.8, "unit": "%"}, {"measurement": "Percentage of Total Bacteria Reduction From Control (Mean % Reduction From Control)", "setting": "[2]; Day 4 post-processing, 20 ppm", "value": 99.2, "unit": "%"}, {"measurement": "Percentage of Total Bacteria Reduction From Control (Mean % Reduction From Control)", "setting": "[2]; Day 6 post-processing, 10 ppm", "value": 77.1, "unit": "%"}, {"measurement": "Percentage of Total Bacteria Reduction From Control (Mean % Reduction From Control)", "setting": "[2]; Day 6 post-processing, 20 ppm", "value": 98.5, "unit": "%"}, {"measurement": "Percentage of Total Bacteria Reduction From Control (Mean % Reduction From Control)", "setting": "[2]; Day 8 post-processing, 10 ppm", "value": 74.6, "unit": "%"}, {"measurement": "Percentage of Total Bacteria Reduction From Control (Mean % Reduction From Control)", "setting": "[2]; Day 8 post-processing, 20 ppm", "value": 97.3, "unit": "%"}, {"measurement": "Percentage of Total Bacteria Reduction From Control (Mean % Reduction From Control)", "setting": "[2]; Day 10 post-processing, 10 ppm", "value": 71.9, "unit": "%"}, {"measurement": "Percentage of Total Bacteria Reduction From Control (Mean % Reduction From Control)", "setting": "[2]; Day 10 post-processing, 20 ppm", "value": 95.1, "unit": "%"}, {"measurement": "Percentage of Total Bacteria Reduction From Control (Mean % Reduction From Control)", "setting": "[2]; Day 12 post-processing, 10 ppm", "value": 69.2, "unit": "%"}, {"measurement": "Percentage of Total Bacteria Reduction From Control (Mean % Reduction From Control)", "setting": "[2]; Day 12 post-processing, 20 ppm", "value": 91.2, "unit": "%"}, {"measurement": "Percentage of Total Bacteria Reduction From Control (Mean % Reduction From Control)", "setting": "[2]; Day 14 post-processing, 10 ppm", "value": 66.2, "unit": "%"}, {"measurement": "Percentage of Total Bacteria Reduction From Control (Mean % Reduction From Control)", "setting": "[2]; Day 14 post-processing, 20 ppm", "value": 84.3, "unit": "%"}, {"measurement": "Percentage of Total Bacteria Reduction From Control (Mean % Reduction From Control)", "setting": "[2]; Day 16 post-processing, 10 ppm", "value": 61.9, "unit": "%"}, {"measurement": "Percentage of Total Bacteria Reduction From Control (Mean % Reduction From Control)", "setting": "[2]; Day 16 post-processing, 20 ppm", "value": 71.2, "unit": "%"}, {"measurement": "Percentage of Total Bacteria Reduction From Control (Mean % Reduction From Control)", "setting": "[2]; Day 18 post-processing, 10 ppm", "value": 58.5, "unit": "%"}, {"measurement": "Percentage of Total Bacteria Reduction From Control (Mean % Reduction From Control)", "setting": "[2]; Day 18 post-processing, 20 ppm", "value": 68.0, "unit": "%"}, {"measurement": "Percentage of Total Bacteria Reduction From Control (Mean % Reduction From Control)", "setting": "[2]; Day 20 post-processing, 10 ppm", "value": 53.7, "unit": "%"}, {"measurement": "Percentage of Total Bacteria Reduction From Control (Mean % Reduction From Control)", "setting": "[2]; Day 20 post-processing, 20 ppm", "value": 67.2, "unit": "%"}]}
